According to article PMC5618414, “FVIIa-sTF and Thrombin Inhibitory Activities of Compounds Isolated from Microcystis aeruginosa K-139” (Marine Drugs, 2017):
“And” between values parts separate entries of the source, which are not always exact repeats. Equal entries are not always repeated. Where two headings read alike, the source gives them in different places.

How the values were obtained:
[1] = molecular target: T1, thrombin (Homo sapiens, UniProt P00734); test: thrombin inhibitory assay; type: biochemical; conditions: for thrombin inhibition (in words): at 10 μg/mL and 100 μg/mL (low and high doses)
T1 construct: subjected to fVIIa-sTF and thrombin assays
Method: The compounds isolated from M. aeruginosa K139 were subjected to fVIIa-sTF and thrombin assays at 10 μg/mL and 100 μg/mL. […] The micropeptin K139 gave a favorable fVIIa-sTF activity at 10 μg/mL and 100 μg/mL with inhibitory activity greater than 50% and 85%, respectively. […] The EC50 of each compound was computed by GraphPad Prism 7 [34], with 95% confidence. […] A difference in activity for the same compound may be attributed to the different cyanobacterial strains used in the study. Our microviridin B was isolated from the strain of M. aeruginosa K139. Okino’s group isolated the compound from the NIES-102 cyanobacterial strain. […]. […] We used ethanol or water as negative controls.
The fVIIa-sTF and thrombin assays have been previously described in previous papers. The half maximal effective concentration (EC50) compounds isolated from M. aeruginosa K139 was done in three plates, with two replicates in each of plate. A 1 mg/mL EtOH solution was prepared and independently diluted to make 750, 500, 250, 100, 75, 50, 25, 10, 5.0, 2.5, and 1.0 μg/mL. The same experimental procedure was done in all fVIIa-sTF and thrombin assays as previously described. A 20-μL solution was added in each well, in replicate, to make a final concentration of 100, 75, 50, 250, 100, 75, 50, 25, 10, 5.0, 2.5, and 1.0 μg/mL. The EC50 was calculated from GraphPad Prism 7^© [34], with 95% confidence.

[2] = molecular target: fVIIa-sTF (Homo sapiens, UniProt P08709); test: fVIIa-sTF inhibitory assay; type: biochemical; conditions: for EC50: 95% confidence using GraphPad Prism 7; for Thrombin/FVIIa-sTF EC50 Ratio: thrombin EC50 divided by fVIIa-sTF EC50
Chain of fVIIa-sTF (P08709 61-212 limits assumed): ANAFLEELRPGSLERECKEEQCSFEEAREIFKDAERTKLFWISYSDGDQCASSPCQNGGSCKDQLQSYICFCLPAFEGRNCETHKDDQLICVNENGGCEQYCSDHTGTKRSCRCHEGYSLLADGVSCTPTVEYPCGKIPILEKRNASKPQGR
Chain of fVIIa-sTF (P08709 213-466 limits assumed): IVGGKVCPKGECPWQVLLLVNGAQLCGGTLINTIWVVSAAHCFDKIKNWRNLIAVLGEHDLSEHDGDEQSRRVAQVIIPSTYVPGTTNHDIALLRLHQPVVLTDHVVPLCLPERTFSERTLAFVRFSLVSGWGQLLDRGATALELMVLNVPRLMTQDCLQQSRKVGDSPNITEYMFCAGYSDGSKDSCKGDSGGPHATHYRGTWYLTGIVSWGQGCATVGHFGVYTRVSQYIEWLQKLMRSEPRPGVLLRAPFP
Chain of fVIIa-sTF (P13726 33-251 partner limits assumed): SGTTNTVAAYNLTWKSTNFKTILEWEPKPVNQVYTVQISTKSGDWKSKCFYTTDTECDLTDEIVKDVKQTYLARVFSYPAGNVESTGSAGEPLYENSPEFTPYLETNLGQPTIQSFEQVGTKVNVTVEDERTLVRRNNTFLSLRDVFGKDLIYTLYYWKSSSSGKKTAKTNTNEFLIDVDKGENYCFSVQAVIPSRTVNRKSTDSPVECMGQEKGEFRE
Method: The compounds isolated from M. aeruginosa K139 were subjected to fVIIa-sTF and thrombin assays at 10 μg/mL and 100 μg/mL. […] Our microviridin B was isolated from the strain of M. aeruginosa K139. […] We used ethanol or water as negative controls.
The fVIIa-sTF and thrombin assays have been previously described in previous papers. […] A 1 mg/mL EtOH solution was prepared and independently diluted to make 750, 500, 250, 100, 75, 50, 25, 10, 5.0, 2.5, and 1.0 μg/mL. The same experimental procedure was done in all fVIIa-sTF and thrombin assays as previously described. A 20-μL solution was added in each well, in replicate, to make a final concentration of 100, 75, 50, 250, 100, 75, 50, 25, 10, 5.0, 2.5, and 1.0 μg/mL.

[3] = tested on: chymotrypsin; parameters: method as in PMID 19260658; conditions: literature; cited from earlier work
[4] = molecular target: T1, thrombin; conditions: literature, cited from earlier work
[5] = 95% confidence using GraphPad Prism 7, read-out: Thrombin: EC50

## CCCCCC(=O)N[C@@H](CC(=O)O)C(=O)N[C@@H]1C(=O)N[C@@H](CCCNC(=N)N)C(=O)N[C@H]2CC[C@@H](O)N(C2=O)[C@@H]([C@@H](C)CC)C(=O)N(C)[C@@H](Cc2ccc(O)cc2)C(=O)N[C@@H]([C@@H](C)CC)C(=O)O[C@@H]1C [Micropeptin K139]
[1]; [5]
  EC50: 26.9 µM
[1]
  thrombin inhibition (in words): inhibited thrombin
[2]
  EC50: 10.6 µM
  Thrombin/FVIIa-sTF EC50 Ratio: 2.54
[2]; at 10 μg/mL
  inhibition at 10 µg/mL: > 50%
[2]; at 100 μg/mL
  inhibition at 100 µg/mL: > 85%
[2]; listed as micropeptin K139
  Thrombin/FVIIa-sTF EC50 Ratio: greater than one

## CCCCCCCC(=O)N[C@@H](CCC(=O)O)C(=O)N[C@@H]1C(=O)N[C@@H](Cc2ccc(O)cc2)C(=O)N[C@H]2CC[C@@H](O)N(C2=O)[C@@H](Cc2ccccc2)C(=O)N(C)[C@@H](Cc2ccc(O)cc2)C(=O)N[C@@H](C(C)C)C(=O)O[C@@H]1C [micropeptin D]
[3]
  chymotrypsin EC50: 1.2 µg/mL

## CC(=O)N[C@@H](CC(C)C)C(=O)N[C@@H](CC(C)C)C(=O)N[C@H](C=O)CCCNC(=N)N [Leupeptin]
[1]; [5]
  EC50: 18.3 µM
[2]
  EC50: 14 µM
  Thrombin/FVIIa-sTF EC50 Ratio: 1.31

## CCCCCC(=O)N[C@@H](CCC(=O)O)C(=O)N[C@@H]1C(=O)N[C@@H](Cc2ccc(O)cc2)C(=O)N[C@H]2CC[C@@H](O)N(C2=O)[C@@H](Cc2ccccc2)C(=O)N(C)[C@@H](Cc2ccc(O)cc2)C(=O)N[C@@H](C(C)C)C(=O)O[C@@H]1C [micropeptin C]
[3]
  chymotrypsin EC50: 1.1 µg/mL

## CCCCCCCC(=O)N[C@@H](CCC(=O)O)C(=O)N[C@@H]1C(=O)N[C@@H](Cc2ccc(O)cc2)C(=O)N[C@H]2CC[C@@H](O)N(C2=O)[C@@H](CC(C)C)C(=O)N(C)[C@@H](Cc2ccc(O)cc2)C(=O)N[C@@H](C(C)C)C(=O)O[C@@H]1C [micropeptin F]
[3]
  chymotrypsin EC50: 1.5 µg/mL

## CC[C@H](C)[C@@H]1NC(=O)[C@H](Cc2ccc(O)cc2)N(C)C(=O)[C@H](CC(C)C)N2C(=O)[C@H](CC[C@H]2O)NC(=O)[C@H](CC(C)C)NC(=O)[C@@H](NC(=O)[C@H](CCC(N)=O)NC(=O)[C@H](O)Cc2ccc(O)cc2)[C@@H](C)OC1=O [917S-C]
[2]; at 100 μg/mL
  fVIIa-sTF inhibitory activity (in words): negative inhibitory activity

## CC[C@H](C)[C@@H]1NC(=O)[C@H](Cc2ccc(O)cc2)N(C)C(=O)[C@H](CC(C)C)N2C(=O)[C@H](CC[C@H]2O)NC(=O)[C@H](Cc2ccc(O)cc2)NC(=O)[C@@H](NC(=O)[C@H](CCC(N)=O)NC(=O)[C@H](O)Cc2ccc(O)cc2)[C@@H](C)OC1=O [917S-A]
[2]; at 100 μg/mL
  fVIIa-sTF inhibitory activity (in words): negative inhibitory activity

## N=C(N)c1ccc(CS(=O)(=O)F)cc1 [APMSF, 4-amidinophenylmethanesulfonylfluoride]
[1]
  EC50: 2.1 µM

## CCC(C)C1NC(=O)C(Cc2ccc(O)cc2)N(C)C(=O)C(CC(C)C)N2C(=O)C(CCC2O)NC(=O)C(CC2C=CC(O)CC2)NC(=O)C(NC(=O)C(CCC(N)=O)NC(=O)C(O)Cc2ccc(O)cc2)C(C)OC1=O (stereo not drawn) [917S-B]
[2]; at 100 μg/mL
  fVIIa-sTF inhibitory activity (in words): negative inhibitory activity

## CCCCCC(=O)N[C@@H](CCC(=O)O)C(=O)N[C@@H]1C(=O)N[C@@H](Cc2ccc(O)cc2)C(=O)N[C@H]2CC[C@@H](O)N(C2=O)[C@@H](CC(C)C)C(=O)N(C)[C@@H](Cc2ccc(O)cc2)C(=O)N[C@@H](C(C)C)C(=O)O[C@@H]1C [micropeptin E]
[3]
  chymotrypsin EC50: 1.0 µg/mL

## CCCCCCCC(=O)N[C@@H](CCC(=O)O)C(=O)N[C@@H]1C(=O)N[C@@H](CCCCN)C(=O)N[C@H]2CC[C@@H](O)N(C2=O)[C@@H](CC(C)C)C(=O)N(C)[C@@H](Cc2ccc(O)cc2)C(=O)N[C@@H](C(C)C)C(=O)O[C@@H]1C [micropeptin A]
[4]
  thrombin inhibitory assay (in words): inactive
[4]; listed as Micropeptin A
  thrombin inhibitory assay (in words): does not inhibit thrombin

## CC(C)CC(NC(=O)C(O)Cc1ccc(O)cc1)C(=O)N1C(C(=O)NC2CCCN(C(=N)N)C2O)CC2CCC(O)CC21 [Aeruginosin K139, L-Hpla-L-Leu-L-Choi-L-Argal]
[1]; [5]
  EC50: 0.66 µM
[1]
  thrombin inhibition (in words): inhibited thrombin
[2]
  EC50: 166 µM and ~166 µM
  Thrombin/FVIIa-sTF EC50 Ratio: 0.004
[2]; at 100 μg/mL
  fVIIa-sTF inhibitory activity (in words): active
